The Deep4Chem optical property database
Blank lines part the entries; values can stand above or below the molecule they belong to.

Assay: solvent given as SMILES

SMILES: CN(C)c1ccc(/C=C/C=C2\CC/C(=C\c3ccc(N(C)C)cc3)C2=O)cc1
emission maximum (in C1CCOC1): 649 nm
emission maximum (in CC#N): 666 nm
emission maximum (in CC(C)=O): 650 nm
emission maximum (in CC(C)O): 687 nm
emission maximum (in CCCCCC): 504 nm
emission maximum (in CCCCO): 712 nm
emission maximum (in CCCCOC(C)=O): 581 nm
emission maximum (in CCCO): 717 nm
emission maximum (in CCO): 725 nm
emission maximum (in CCOC(=O)c1ccccc1): 604 nm
emission maximum (in CCOC(C)=O): 591 nm
emission maximum (in CCOCC): 546 nm
emission maximum (in CN(C)C=O): 656 nm
emission maximum (in CO): 737 nm
emission maximum (in CS(C)=O): 676 nm
emission maximum (in Cc1ccccc1): 530 nm
emission maximum (in ClC(Cl)(Cl)Cl): 515 nm
emission maximum (in ClC(Cl)Cl): 623 nm
emission maximum (in ClCCl): 635 nm
emission maximum (in Clc1ccccc1Cl): 608 nm
emission maximum (in S=C=S): 540 nm
emission maximum (in c1ccccc1): 532 nm
emission maximum (in c1ccncc1): 643 nm

emission maximum (in ClC(Cl)Cl): 565 nm
SMILES: c1csc(-c2ccc(-c3cccs3)c3nsnc23)c1

SMILES: C(=C\c1ccc(-n2c3ccccc3c3ccccc32)cc1)/c1ccc(-c2ccc(/C=C/c3ccc(-n4c5ccccc5c5ccccc54)cc3)cc2)cc1
emission maximum (in Cc1ccccc1): 420 nm
emission maximum (in c1ccc2c(c1)c1ccccc1n2-c1ccc(-c2ccc(-n3c4ccccc4c4ccccc43)cc2)cc1): 438 nm

SMILES: CCN(CC)c1ccc([N+]2=Cc3ccc4c5c(ccc4c3O[B-]2(c2c(F)c(F)c(F)c(F)c2F)c2c(F)c(F)c(F)c(F)c2F)C=[N+](c2ccc(N(CC)CC)cc2)[B-](c2c(F)c(F)c(F)c(F)c2F)(c2c(F)c(F)c(F)c(F)c2F)O5)cc1
emission maximum (in C1CCOC1): 714 nm
emission maximum (in Cc1ccccc1): 644 nm
emission maximum (in ClCCl): 683 nm

SMILES: COc1ccc(-c2ccc(-c3ccc(OC)cc3)c3nc(-c4ccccc4)c(-c4ccccc4)nc23)cc1
emission maximum (in C1CCOC1): 504 nm
emission maximum (in CC#N): 512 nm
emission maximum (in CCCCCC): 477 nm
emission maximum (in CN(C)C=O): 514 nm
emission maximum (in Cc1ccccc1): 492 nm
emission maximum (in ClC(Cl)Cl): 502 nm

SMILES: CN(C)c1ccc(C2=Nc3scc(-c4ccc(N(C)C)cc4)[n+]3[B-](F)(F)O2)cc1
emission maximum (in C1CCOC1): 616 nm
emission maximum (in Cc1ccccc1): 518 nm
emission maximum (in ClCCl): 590 nm

SMILES: Cc1ccc(N2C(c3ccccc3N(C)C)=NC(c3ccccc3)C2c2ccccc2)cc1 (configuration not stated)
emission maximum (in Cc1ccccc1): 422 nm

SMILES: FC(F)(F)c1ccc(/C=C/c2ccc(-c3nnc(-c4ccc(-c5cc6ccccc6s5)cc4)o3)cc2)cc1
emission maximum (in CC#N): 388 nm
emission maximum (in CC(C)=O): 390 nm
emission maximum (in CCCCCCCC): 387 nm
emission maximum (in CCCCCCCCCCO): 395 nm
emission maximum (in CCCCCCCCO): 394 nm
emission maximum (in CCCCCO): 393 nm
emission maximum (in CCCO): 391 nm
emission maximum (in CN(C)C=O): 416 nm
emission maximum (in CO): 389 nm
emission maximum (in CS(C)=O): 397 nm

emission maximum (in ClCCl): 428 nm
SMILES: CCOC(=O)c1c(-c2cc3cc4c(cc3oc2=O)OC(C)(C)CC4)nn(-c2cccc(C)c2)c1C(=O)OCC

SMILES: c1ccc(-n2c(-c3cccc4ccccc34)nc3c4cccc5ccc6cccc(c6c54)c32)cc1
emission maximum (in C1CCOC1): 422.46 nm
emission maximum (in CCCCCC): 384 nm
emission maximum (in CS(C)=O): 436 nm
emission maximum (in Cc1ccccc1): 420 nm
emission maximum (in ClCCl): 424.78 nm

SMILES: CCCCC(CC)Cn1c2cc(C#N)ccc2c2cc(-c3ccc(N(c4ccccc4)c4ccccc4)cc3)c(C#N)cc21 (configuration not stated)
emission maximum (in C1CCCCC1): 444 nm
emission maximum (in C1CCOC1): 507 nm
emission maximum (in CC#N): 548 nm
emission maximum (in CCCCOCCCC): 464 nm
emission maximum (in CCN(CC)CC): 461.69 nm
emission maximum (in CCOC(C)=O): 463 nm
emission maximum (in CCOCC): 501 nm
emission maximum (in CN(C)C=O): 543 nm
emission maximum (in Cc1ccccc1): 474 nm
emission maximum (in ClC=C(Cl)Cl): 477 nm
emission maximum (in ClCCl): 517 nm

emission maximum (in CC#N): 470 nm
SMILES: CC(C)Oc1ccc(C#Cc2ccc3ccc(=O)oc3c2)cc1

SMILES: CC1(C)c2ccccc2N(c2ccc(C(=CC#N)c3ccc(N4c5ccccc5C(C)(C)c5ccccc54)cc3)cc2)c2ccccc21
emission maximum (in Cc1ccccc1): 519 nm

emission maximum (in ClCCl): 354 nm
SMILES: CC1(C)c2ccccc2-c2sc3ccccc3c21

emission maximum (in ClCCl): 429 nm
SMILES: CN(C)c1ccc(-c2cc(-c3ccc(N(C)C)cc3)ncn2)cc1

emission maximum (in C1CCOC1): 494 nm
SMILES: C[P+](c1c2ccccc2cc2ccccc12)(c1c2ccccc2cc2ccccc12)c1c2ccccc2cc2ccccc12

SMILES: CCCCCCCCCCCCCCCCOc1cc(C#Cc2ccc3ccccc3c2)c(OCCCCCCCCCCCCCCCC)cc1C#Cc1ccc(C=C(C#N)C#N)cc1
emission maximum (in Brc1ccccc1): 582 nm
emission maximum (in C1CCCCC1): 484 nm
emission maximum (in C1CCOC1): 602 nm
emission maximum (in C1COCCO1): 554 nm
emission maximum (in CCCCCC): 480 nm
emission maximum (in CCCCCCCCO): 596 nm
emission maximum (in CCCCOCCCC): 524 nm
emission maximum (in CCOC(C)=O): 590 nm
emission maximum (in CCOCC): 550 nm
emission maximum (in Cc1ccccc1): 530 nm
emission maximum (in ClC(Cl)(Cl)Cl): 500 nm
emission maximum (in ClC(Cl)Cl): 596 nm
emission maximum (in ClCCl): 618 nm

emission maximum (in ClC(Cl)Cl): 663 nm
SMILES: CN1C(=CC2=C([S-])C(=CC3=[N+](C)c4ccccc4C3(C)C)C2=O)C(C)(C)c2ccccc21

emission maximum (in C1CCCCC1): 396 nm
SMILES: COc1ccc2c3c(c4ccc(OC)cc4c2c1)C(C)(C)c1c-3ccc2ccccc12

emission maximum (in ClCCl): 373 nm
SMILES: CCCCCCCCOc1ccc(C#Cc2ccc3oc4ccccc4c3c2)c(OCCCCCCCC)c1
